Test results taken from patent US9126999B2, “Tetrahydropyrazolopyrimidine compounds” (EISAI R&D MANAGEMENT CO., LTD., priority 2012, dated 2015).
“And” between values parts separate entries of the source, which are not always exact repeats. Equal values may be shown once. Read-outs that look alike come from different tables or passages of the source.

Target: T1, Mouse TLR7 (Mus musculus, UniProt P58681)
T1 construct: endogenous in cells; host or cells: female BALB/c mice, in vivo
T1 sequence (P58681 27-1050): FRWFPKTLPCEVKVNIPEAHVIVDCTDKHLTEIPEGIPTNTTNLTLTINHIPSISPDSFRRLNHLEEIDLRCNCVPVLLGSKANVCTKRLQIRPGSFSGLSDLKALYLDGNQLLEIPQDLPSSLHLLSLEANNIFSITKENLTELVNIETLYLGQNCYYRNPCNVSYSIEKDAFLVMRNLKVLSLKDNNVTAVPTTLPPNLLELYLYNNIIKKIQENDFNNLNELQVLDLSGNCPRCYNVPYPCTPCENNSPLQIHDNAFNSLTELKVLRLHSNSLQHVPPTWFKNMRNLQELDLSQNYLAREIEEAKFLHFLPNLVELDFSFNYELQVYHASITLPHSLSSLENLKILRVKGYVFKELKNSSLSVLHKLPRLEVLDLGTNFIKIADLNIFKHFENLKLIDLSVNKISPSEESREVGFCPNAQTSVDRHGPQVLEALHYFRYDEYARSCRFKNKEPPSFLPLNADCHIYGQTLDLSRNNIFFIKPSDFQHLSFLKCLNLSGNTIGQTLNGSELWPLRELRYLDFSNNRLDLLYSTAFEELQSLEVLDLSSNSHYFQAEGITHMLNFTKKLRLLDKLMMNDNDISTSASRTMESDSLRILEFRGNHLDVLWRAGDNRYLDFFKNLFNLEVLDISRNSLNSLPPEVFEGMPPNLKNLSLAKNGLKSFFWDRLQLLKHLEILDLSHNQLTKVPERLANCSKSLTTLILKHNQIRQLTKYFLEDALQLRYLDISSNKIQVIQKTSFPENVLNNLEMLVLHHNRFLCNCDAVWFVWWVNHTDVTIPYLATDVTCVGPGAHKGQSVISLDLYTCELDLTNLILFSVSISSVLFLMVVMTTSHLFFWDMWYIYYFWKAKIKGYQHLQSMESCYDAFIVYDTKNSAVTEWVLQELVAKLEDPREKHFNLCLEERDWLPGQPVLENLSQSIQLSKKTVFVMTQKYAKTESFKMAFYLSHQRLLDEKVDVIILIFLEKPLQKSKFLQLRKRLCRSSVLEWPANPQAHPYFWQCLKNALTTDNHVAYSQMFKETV
Experiment: Mouse spleen cell-based assay, R848 stimulus, IL-6 ELISA
Protocol: Spleens were harvested from female BALB/c mice (Jackson Labs, Bar Harbor, Me.) euthanized by CO2. A single cell suspension was obtained by passing spleens through a 40 μm nylon cell strainer. Cells were washed twice with 50 ml PBS (Mediatech, Inc., Manassas, Va.) and red blood cells were lysed in 5 ml RBC Lysis buffer (eBioscience, Inc., San Diego, Calif.) for 5 minutes at room temperature. Cells were washed twice more in PBS and finally resuspended in supplemented RPMI-1640 at 2.5×10^6 cells/ml. Cells were plated at 100 μl/well (2.5×10^5 cells/well) in 96-well tissue culture treated plates (Falcon). Serial dilutions of compounds solubilized in 100% DMSO were added in triplicate to cells to yield a final concentration of 0.1% DMSO. Cells were incubated with compound for 30 minutes at 37° C., 5% CO2 before adding 100 μl/well of 740 nM R848 (Resiquimod; GLSynthesis, Worcester, Mass.) in complete media for a final concentration of 370 nM R848. Cells were incubated for 20 hours at 37° C., 5% CO2. Culture supernatants were collected, and levels of IL-6 were assessed by standard ELISA procedure according to the manufacturer's recommended protocol (BD Biosciences, Inc., San Diego, Calif.).

[1] = Mouse Splenocyte IL-6 Inhibition (R848 Ligand), read-out: Mouse Splenocyte IC50

Row | SMILES | IC50 [1] | IC50 (Mu Spleen, ligand R848, analyte IL-6, read-out: IC50)
1 | Cc1nn(C)cc1[C@@H]1C[C@H](C(F)(F)F)n2nc(-c3ccc(NC(N)=O)cc3)cc2N1 [ER-894595] | 3110 nM | 
2 | COc1ccc([C@@H]2C[C@H](C(F)(F)F)n3nc(-c4ccc(C(=O)N5CCNCC5)cc4)cc3N2)cc1OC [ER-892887, (4-((5S,7R)-5-(3,4-dimethoxyphenyl)-7-(trifluoromethyl)-4,5,6,7-tetrahydropyrazolo[1,5-a]pyrimidin-2-yl)phenyl)(piperazin-1-yl)methanone] | 70 nM and 330 nM | 70 nM
3 | Cc1nn(C)cc1[C@H]1C[C@@H](C(F)(F)F)n2nc(-c3ccc(NC(N)=O)cc3)cc2N1 [ER-894596] | 3020 nM | 
4 | COc1ccc([C@@H]2C[C@H](C(F)(F)F)n3nc(-c4ccncc4)cc3N2)cc1OC [ER-885454] | 680 nM | 
